Here are results for one substance from paper PMC6373673, “Purified PEGylated human glucagon-like peptide-2 reduces the severity of irradiation-induced acute radiation enteritis in rats” (Journal of Radiation Research, 2018).

Data set [1] concerns oxidative stress markers (MDA, SOD, GSH, GSH-Px) in the small intestine. Kind of data set: Intestinal MDA, SOD, GSH and GSH-Px (commercial assay kits) after X-ray irradiation. In kind it is in vivo, Sprague Dawley (SD) rats. To be noted: SD rats, 8 Gy abdominal X-ray, small intestine 48 h after, mean ± S.D., n = 10. The text has this: (§1) Sixty adult male Sprague Dawley (SD) rats weighing 220–250 g were included in our study. Rats were subjected to 1 week of preliminary conditioning, during which time they received standard pellet rat chow and water ad libitum. They were housed in a temperature-and humidity-controlled environment, two animals per cage, with a 12-h light/12-h dark cycle. The Principles of Laboratory Animal Care (NIH Publication 85e23, revised 1996) were followed. Animal study protocols were approved by the Ethics Committee of the Fourth Military Medical University. The experiment was carried out at the Department of Pharmacy, Tangdu Hospital, Fourth Military Medical University.
(§2) X-ray irradiation was performed using a linear accelerator (Siemens primask) adjusted to provide X-ray irradiation, and carried out at the Department of Radiology and Oncology at the Tangdu Hospital. All of the animals were anesthetized with an intramuscular injection of pentobarbital sodium (100 mg/kg) and subjected to a single dose of 8 Gy abdominal X-radiation. The dose was delivered at a rate of 400 monitor units/min (1100 rad, 116.5 cGy/min, 100 cm source–skin distance) using a conventional radiation source, while the other parts of the body were carefully shielded.
Rats were randomized into six groups (Groups A–F). […] The remaining rats were subjected to a single dose of 8 Gy of abdominopelvic X-radiation and randomized further into five groups (Groups B–F). […] Briefly, rats were anesthetized with 100 mg/kg pentobarbital sodium, positioned supine, and subjected to a single fraction of 8 Gy delivered at a specific depth through abdominopelvic fields using X-rays at the rate of 0.74 Gy/min, while the other parts of the body were carefully shielded. Radiated rats were allowed to recover from the anesthetic and GLP-2 or Mono-PEG-hGLP-2 was administered by intraperitoneal injection. • Group A: non-X-ray irradiated (control). • Group B: X-ray irradiated. • Group C: pretreated with 3 μg of Mono-PEG-hGLP-2 in 0.3 ml of saline 5 min before X-ray irradiation. • Group D: pretreated with 10 μg of Mono-PEG-hGLP-2 in 0.3 ml of saline 5 min before X-ray irradiation. • Group E: pretreated with 30 μg of Mono-PEG-hGLP-2 in 0.3 ml of saline 5 min before X-ray irradiation. • Group F: pretreated with 30 μg of GLP-2 in 0.3 ml of saline 5 min before X-ray irradiation.
(§3) Malondialdehyde (MDA) levels, glutathione (GSH) content, and the activities of super oxide-dismutase (SOD) and glutathione peroxidase (GPx) were determined in the small intestine using commercial assay kits (Biyuntian Co., China) according to the manufacturer’s protocols. The protein content ratio was determined by Pierce™ BCA Protein Assay Kit (Thermo Fisher Scientific Inc., Rockford, IL, USA). All of the values were normalized to total intestinal protein. Small intestine tissue (20 mg) was homogenized in lysis buffer (150 mM NaCl, 0.1% SDS, 0.1% NP-40, 20 mM Tris-HCl pH 7.5) and protease inhibitor cocktail using a Tissue Lyser II homogenizer (Qiagen; Hilden, Germany). Total protein concentrations of tissue homogenates were detected by a Pierce™ BCA Protein Assay Kit (Thermo Scientific; Rockford, IL, USA). The levels of tumor necrosis factor-alpha (TNF-α) (Invitrogen; Carlsbad, CA, USA) and interleukin-2 (IL-2) (Bioo Scientific; Austin, TX, USA) in the tissue samples were determined using commercially available sandwich ELISA kits, according to the protocol recommended by the manufacturer. Results were recorded as the ratio of detected protein (TNF-α, IL-2) (pg/ml) to the amount of total protein (mg/ml).

The next data set has as its system TNF-α. Kind of data set: Intestinal TNF-α by sandwich ELISA after X-ray irradiation. It is filed as in vivo, Sprague Dawley (SD) rats. The settings on record: SD rats, 8 Gy abdominal X-ray, small intestine homogenate 48 h after, mean ± S.D., n = 10.
Excerpt: as §1, §2
Rats were randomized into six groups (Groups A–F). […] The remaining rats were subjected to a single dose of 8 Gy of abdominopelvic X-radiation and randomized further into five groups (Groups B–F). […] Briefly, rats were anesthetized with 100 mg/kg pentobarbital sodium, positioned supine, and subjected to a single fraction of 8 Gy delivered at a specific depth through abdominopelvic fields using X-rays at the rate of 0.74 Gy/min, while the other parts of the body were carefully shielded. […]
as §3, with “All of the values were normalized to total intestinal protein. Small intestine tissue (20 mg) was homogenized in lysis buffer (150 mM NaCl, 0.1% SDS, 0.1% NP-40, 20 mM Tris-HCl pH 7.5) and protease inhibitor cocktail using a Tissue Lyser II homogenizer (Qiagen; Hilden, Germany).” left out
In general terms: An ELISA detects its analyte on a solid surface through an enzyme-linked reagent.

[2] abbreviates: 3 μg i.p. 5 min before irradiation.
The mark [3] stands for this setting: 10 μg i.p. 5 min before irradiation.
Where [4] appears, read: 30 μg i.p. 5 min before irradiation.

As to “Mono-PEG-hGLP-2: human GLP-2 peptide conjugated to one 5 kDa mPEG chain by reaction with mPEG5k-SPA”, the “Intestinal GSH-Px activity” value in data set [1] (setting [2]) worked out at 331.2 ± 22.1 U/mg prot; in data set [1] (setting [3]), 367.5 ± 42.3 U/mg prot; in data set [1] (setting [4]), 412.7 ± 65.7 U/mg prot. For the same substance, the figures for the “Intestinal SOD activity” value in data set [1] (setting [2]), in data set [1] (setting [3]) and in data set [1] (setting [4]) were 40.47 ± 5.41 U/mg prot, 47.45 ± 8.24 U/mg prot and 56.11 ± 6.01 U/mg prot, respectively. In addition, the “Intestinal content of GSH” value in data set [1] (setting [2]) was found to be 20.22 ± 4.87 mg/g prot; in data set [1] (setting [3]) it was 24.70 ± 10.22 mg/g prot; in data set [1] (setting [4]), 24.01 ± 4.17 mg/g prot. The Intestinal content of MDA in data set [1] (setting [2]) was 5.27 ± 0.44 nmol/mg prot; in data set [1] (setting [3]) it was 4.48 ± 0.37 nmol/mg prot; in data set [1] (setting [4]), 4.01 ± 0.22 nmol/mg prot. The results for the “Intestinal content of TNF-α” value with TNF-α (setting [2]), in the data set with TNF-α (setting [3]) and with TNF-α (setting [4]) were 7.68 ± 0.77 pg/mg prot, 6.12 ± 1.01 pg/mg prot and 4.78 ± 0.67 pg/mg prot, respectively.
